This is an account of results in article PMC6332093, “Development of Radiolabeled Membrane Type-1 Matrix Metalloproteinase Activatable Cell Penetrating Peptide Imaging Probes” (Molecules, 2015).

The nature of data set [1]: in vivo. The settings on record: mouse; for tissue uptake: 10 nmol, total radioactivity. The protocol:
(§1) Here, a single isotope labeled probe ^177Lu-ACPP-B was employed in a pilot in vivo study.
Figure 6 Blood kinetics of ^177Lu-ACPP-B in MI-mice (n = 3). The data are mean %ID/g ± SD and fitted to the 2-phase exponential decay function Y = span1 × exp(−K1 × X) + span2 × exp(−K2 × X) + Plateau. Span1 = 2.61%ID/g, K1 = 1.99 min^−1, Span2 = 7.35%ID/g, K2 = 27.1 min^−1.
(§2) Biodistribution experiments were performed on MI-mice (n = 5 per probe) by i.v.-injection of ^177Lu-ACPP-B (10 nmol/100 µL, ca. 4.0 MBq ^177Lu), or ^177Lu-CPP-B (10 nmol/100 µL, ca. 4.0 MBq ^177Lu). For animals injected with ^177Lu-ACPP-B, blood samples were withdrawn from the vena saphena at selected time points (3, 9, 27, and 81 min), weighed, and diluted to 1 mL with MilliQ water. The mice were anesthetized with isoflurane 5 h after i.v.-injection, subjected to 2% (w/v) Evans Blue i.v.-injection (50 mg/kg) and sacrificed 2 min later by cervical dislocation. Organs and tissues of interest were harvested and weighed. The hearts were cooled to 4 °C, cut in 1 mm slices from apex to base. Infarct, border, and remote areas were isolated based on Evans Blue staining. The ^177Lu radioactivity of all samples was measured in a γ-counter (Wizard 1480; PerkinElmer) along with standards to determine the injected dose per gram (%ID/g). The energy window was set to 155–380 keV. The average probe concentration at time 0 (C0) was calculated by fitting the blood clearance data to the 2-phase exponential decay function Y = span1 × exp(−K1 × X) + span2 × exp(−K2 × X) + Plateau using GraphPad Prism. The area under the curve (AUC) was determined and the blood half-life, the time point at which the AUC reaches 50% of the total AUC, was subsequently derived using MatLab. The average volume of distribution was calculated using the formula VD = dose/(mean body weight × C0) [L/kg].

A short description of data set [2]: Biodistribution in mouse model of myocardial infarction. In kind it is in vivo. The conditions noted are these: iv, total radioactivity, 5 h post-injection; for tissue uptake at 5 h: 10 nmol i.v., mean ± SD. As for the experimental part:
An in vivo pilot study was performed to assess the in vivo biodistribution of ACPP-B and CPP-B, 5 h post-injection, in a mouse model of myocardial infarction (MI). The conditions were similar to the earlier study with the MMP-2/9 sensitive probe ^177Lu/^125I-ACPP-2/9 [1] to facilitate comparison. We aimed to characterize the in vivo biodistribution of ACPP-B using a dual-isotope approach with ^177Lu, labeled to the polycationic domain, and ^125I, labeled to the polyanionic domain, as orthogonal radiolabels (see Supplemental Information for performed iodination procedures). […] Unfortunately, a >95% radiochemical purity could not be achieved by solid phase extraction (Figure S5), and desalting strategies to remove ^125I could not be applied due to the low molecular weight of the peptide. Therefore, re-design of the ACPP-B peptide structure, to prevent side-reactions during iodination, may enable dual-isotope studies. Hereto, the cysteine residue can be acetylated, but oxidation of the sulfur atom may still occur. Furthermore, this conversion results in a more hydrophobic residue that may impact the MT1-MMP sensitivity of the probe. Substitution of the cysteine by a serine residue will possibly be a more attractive option. Alternatively, iodine may be introduced specifically to the N-terminus via coupling of a ^125I-SHPP moiety (following a similar approach as proposed for iodination of ACPP-C (Figure 1)).
as §1
MI was induced by permanent ligation of the left anterior descending coronary artery (LAD) using published procedures. In short, animals were subcutaneously injected with buprenorphine (0.1 mg/kg) and 30 min later anesthetized with isoflurane. Animals were intubated and ventilated with 100% oxygen with a rodent respirator. After left thoracotomy between ribs four and five, the LAD was ligated with a 6–0 prolene suture. The chest and skin were closed with 5–0 silk sutures. The animal’s temperature was continuously measured rectally and maintained at 36.5–37.5 °C during surgery. After surgery, animals were allowed to recover at 30 °C overnight.
as §2

The mark [3] stands for this setting: blood, MI-mice 10 days after MI, γ-counting, n = 5, read-out: Biodistribution, Blood.
The mark [4] stands for this setting: brain, MI-mice, n = 5, read-out: Biodistribution, Brain.
The mark [5] stands for this setting: fat, MI-mice, n = 5, read-out: Biodistribution, Fat.
Setting [6] is: heart, infarct area, MI-mice, n = 5, read-out: Biodistribution, Heart, infarct.
The mark [7] stands for this setting: heart, remote myocardium, MI-mice, n = 5, read-out: Biodistribution, Heart, remote.
Setting [8] is: kidney, MI-mice, n = 5, read-out: Biodistribution, Kidney.
The mark [9] stands for this setting: liver, MI-mice, n = 5, read-out: Biodistribution, Liver.
[10] abbreviates: lung, MI-mice, n = 5, read-out: Biodistribution, Lung.
[11] abbreviates: muscle, MI-mice, n = 5, read-out: Biodistribution, Muscle.
[12] abbreviates: spleen, MI-mice, n = 5, read-out: Biodistribution, Spleen.
[13] abbreviates: thigh bone, MI-mice, n = 5, read-out: Biodistribution, Thigh bone.

Like-named read-outs stand apart in the source and are kept apart here. Square brackets hold non-standard residues; d marks the D form. Peptide text beside a SMILES is read from it. * marks the point of attachment. DOTA = O=C(O)CN1CCN(CC(=O)O)CCN(CC(=O)*)CCN(CC(=O)O)CC1; AEA = NCCOCC(=O)O

As for `CC(=O)N[C@H](Cc1ccc(O)cc1)C(=O)N[C@H](CCC(=O)O)C(=O)N[C@H](CCC(=O)O)C(=O)N[C@H](CCC(=O)O)C(=O)N[C@H](CCC(=O)O)C(=O)N[C@H](CCC(=O)O)C(=O)N[C@H](CCC(=O)O)C(=O)N[C@H](CCC(=O)O)C(=O)N[C@H](CCC(=O)O)C(=O)N[C@H](CCC(=O)O)C(=O)NCCOCC(=O)N[C@@H](CS)C(=O)N[C@@H](CCCNC(=N)N)C(=O)N1CCC[C@H]1C(=O)N[C@@H](C)C(=O)N[C@@H](Cc1c[nH]cn1)C(=O)N[C@@H](CC(C)C)C(=O)N[C@@H](CCCNC(=N)N)C(=O)N[C@@H](CC(=O)O)C(=O)N[C@@H](CO)C(=O)NCC(=O)NCCOCC(=O)N[C@H](CCCNC(=N)N)C(=O)N[C@H](CCCNC(=N)N)C(=O)N[C@H](CCCNC(=N)N)C(=O)N[C@H](CCCNC(=N)N)C(=O)N[C@H](CCCNC(=N)N)C(=O)N[C@H](CCCNC(=N)N)C(=O)N[C@H](CCCNC(=N)N)C(=O)N[C@H](CCCNC(=N)N)C(=O)N[C@H](CCCNC(=N)N)C(=O)N[C@H](CCCCNC(=O)CN1CCN(CC(=O)O)CCN(CC(=O)O)CCN(CC(=O)O)CC1)C(N)=O` [ACPP-B, Ac-y-e9-X-CRPAHLRDSG-X-r9-k(DOTA)-NH2] (Ac-[dY][dE][dE][dE][dE][dE][dE][dE][dE][dE][AEA]CRPAHLRDSG[AEA][dR][dR][dR][dR][dR][dR][dR][dR][dR][dK](DOTA)-NH2), in data set [1] (iv), the blood half-life is listed as ~ 24 min. For the same compound, the tissue to tissue ratio at 5 h in data set [2] (kidney and liver, ^177Lu label, 10 nmol, MI-mice, from Table 1) was found to be 14.9.

`CC(=O)N[C@H](Cc1ccc(O)cc1)C(=O)N[C@H](CCC(=O)O)C(=O)N[C@H](CCC(=O)O)C(=O)N[C@H](CCC(=O)O)C(=O)N[C@H](CCC(=O)O)C(=O)N[C@H](CCC(=O)O)C(=O)N[C@H](CCC(=O)O)C(=O)N[C@H](CCC(=O)O)C(=O)N[C@H](CCC(=O)O)C(=O)N[C@H](CCC(=O)O)C(=O)NCCOCC(=O)N[C@@H](CS)C(=O)N[C@@H](CCCNC(=N)N)C(=O)N1CCC[C@H]1C(=O)N[C@@H](C)C(=O)N[C@@H](Cc1c[nH]cn1)C(=O)N[C@@H](CC(C)C)C(=O)N[C@@H](CCCNC(=N)N)C(=O)N[C@@H](CC(=O)O)C(=O)N[C@@H](CO)C(=O)NCC(=O)NCCOCC(=O)N[C@H](CCCNC(=N)N)C(=O)N[C@H](CCCNC(=N)N)C(=O)N[C@H](CCCNC(=N)N)C(=O)N[C@H](CCCNC(=N)N)C(=O)N[C@H](CCCNC(=N)N)C(=O)N[C@H](CCCNC(=N)N)C(=O)N[C@H](CCCNC(=N)N)C(=O)N[C@H](CCCNC(=N)N)C(=O)N[C@H](CCCNC(=N)N)C(=O)N[C@H](CCCCNC(=O)CN1CCN(CC(=O)O)CCN(CC(=O)O)CCN(CC(=O)O)CC1)C(N)=O` [^177Lu-ACPP-B, metal not drawn] (Ac-[dY][dE][dE][dE][dE][dE][dE][dE][dE][dE][AEA]CRPAHLRDSG[AEA][dR][dR][dR][dR][dR][dR][dR][dR][dR][dK](DOTA)-NH2): the “K1 of 2-phase exponential decay fit of blood kinetics” value in data set [1] came to 1.99 min⁻¹. The “K2 of 2-phase exponential decay fit of blood kinetics” value in data set [1] came to 27.1 min⁻¹. In addition, the tissue uptake in data set [1] (iv, Span1 of 2-phase exponential decay fit of blood kinetics) was 2.61 %ID/g; in data set [1] (iv, Span2 of 2-phase exponential decay fit of blood kinetics), 7.35 %ID/g. Also, the tissue uptake at 5 h in data set [2] (setting [3]) came out at 0.08 ± 0.03 %ID/g; in data set [2] (setting [4]) it was 0.01 ± 0.01 %ID/g; in data set [2] (setting [5]), 0.43 ± 0.28 %ID/g; in data set [2] (setting [6]) it was 0.75 ± 0.15 %ID/g; in data set [2] (setting [7]), 0.11 ± 0.02 %ID/g; in data set [2] (setting [8]) it was 100 ± 13 %ID/g. The tissue uptake at 5 h in data set [2] (setting [9]) turned out to be 6.76 ± 0.91 %ID/g; in data set [2] (setting [10]), 0.38 ± 0.09 %ID/g; in data set [2] (setting [11]), 0.09 ± 0.07 %ID/g; in data set [2] (setting [12]), 0.77 ± 0.13 %ID/g; in data set [2] (setting [13]), 1.92 ± 0.73 %ID/g.

Regarding `CC(C)C[C@H](N)C(=O)N[C@@H](CCCNC(=N)N)C(=O)N[C@@H](CC(=O)O)C(=O)N[C@@H](CO)C(=O)NCC(=O)NCCOCC(=O)N[C@H](CCCNC(=N)N)C(=O)N[C@H](CCCNC(=N)N)C(=O)N[C@H](CCCNC(=N)N)C(=O)N[C@H](CCCNC(=N)N)C(=O)N[C@H](CCCNC(=N)N)C(=O)N[C@H](CCCNC(=N)N)C(=O)N[C@H](CCCNC(=N)N)C(=O)N[C@H](CCCNC(=N)N)C(=O)N[C@H](CCCNC(=N)N)C(=O)N[C@H](CCCCNC(=O)CN1CCN(CC(=O)O)CCN(CC(=O)O)CCN(CC(=O)O)CC1)C(N)=O` [^177Lu-CPP-B, metal not drawn] (H-LRDSG[AEA][dR][dR][dR][dR][dR][dR][dR][dR][dR][dK](DOTA)-NH2), the tissue uptake at 5 h in data set [2] (setting [3]) amounted to 0.14 ± 0.06 %ID/g; in data set [2] (setting [4]) it was 0.01 ± 0.01 %ID/g; in data set [2] (setting [5]), 0.16 ± 0.07 %ID/g; in data set [2] (setting [6]), 1.69 ± 0.5 %ID/g; in data set [2] (setting [7]), 0.32 ± 0.11 %ID/g; in data set [2] (setting [8]) it was 10.1 ± 1.61 %ID/g. Also, the tissue uptake at 5 h in data set [2] (setting [9]) came to 33.2 ± 3.98 %ID/g; in data set [2] (setting [10]) it was 0.67 ± 0.25 %ID/g; in data set [2] (setting [11]) it was 0.1 ± 0.02 %ID/g; in data set [2] (setting [12]), 4.17 ± 0.82 %ID/g; in data set [2] (setting [13]), 2.61 ± 0.25 %ID/g.
